According to patent US20250073238A1, “METHODS OF TREATING SYSTEMIC LUPUS ERYTHEMATOSUS USING BTK INHIBITORS” (BeiGene Switzerland GmbH, priority 2020, published 2025):

Columns and labels:
[1] = system: NZBWF1/J lupus mouse model; assay: Efficacy in NZBWF1/J lupus model; type: in vivo; settings: for Blood urea nitrogen (BUN) level: day 96, serum
Experimental: […] NZBWF1 female mice at 26 weeks of age were randomized into 7 groups with 10 mice per group, based on proteinuria level, anti-dsDNA IgG level and body weight. […] Treatments were administered by oral gavage (p.o.) in a volume of 10 ml/kg body weight.
Mice were also being monitored daily for clinical signs of toxicity for the duration of the study. Body weight for each animal was recorded twice per week and proteinuria was measured weekly. Proteinuria was assessed using URIT 1 vp strips, and was scored on a 0-4 scale with scored as follows: 0=trace, 1≥30 mg/dL, 2≥100 mg/dL, 3≥300 mg/dL, and 4≥500 mg/dL.
On the day 96th of treatment, blood was collected quickly by the heart punctures under carbon dioxide euthanasia. The 300-500 μL blood was transferred to the coagulation tube, and the upper serum samples were separated by centrifuge at 2,000 g for 10 minutes, and then stored in the refrigerator at −80° C. for later use. 110 μL serum was used for the detection of blood urea nitrogen level, and 25 μL serum was used for measurement of TNFα and IL-10 levels by Luminex.
The kidney was removed and fixed with 10% neutral buffer formalin solution. The tissue was taken from the modified block, dehydrated with alcohol step by step, embedded in paraffin, sectioned by slide slicer (about 3 μm thick), stained with hematoxylin-cosin (HE), and examined by light microscopy for pathological changes of the kidney tissue. Sections were blindly scored as the sum of three systems, including inflammation (0-4), glomerular damage (0-4), and sclerosis (0-4).

[2] = Plasma drug exposure at steady state in SLE-cGVHD mice; type: in vivo, mouse; settings: day 26, 10 and 20 mg/kg BID oral
Experimental: Plasma was collected by centrifugation at 5, 600 rpm for 7 minutes. Bioanalysis was conducted at 3D BioOptima Co., Ltd. (Suzhou, China).

[3] = system: MRL/MpJ-Fas^lpr/J (MRL/lpr) mouse model; assay: Efficacy in MRL/MpJ-Fas^lpr/J (MRL/lpr) lupus model; type: in vivo
Experimental: MRL/MpJ-Fas^lpr/J (MRL/lpr) mice purchased from Jackson laboratories were randomized into 6 groups with 11 mice per group, based on proteinuria level, anti-dsDNA IgG and body weight. […] Treatments were administered by oral gavage (p.o.) in a volume of 10 ml/kg body weight.
During the experimental period, the condition and mortality of the mice were recorded every day. Body weight for each animal was recorded twice per week.
Proteinuria was measured by determination of urine albumin weekly using URIT 1 vp strips (URIT, China), and was scored on a 0-4 scale with scored as follows: 0=trace, 1≥30 mg/dLl, 2≥100 mg/dL, 3≥300 mg/dLl, and 4≥500 mg/dL.
At the end of the study, blood was collected from the orbital venous sinus under isoflurane/oxygen anesthesia. The serum samples were prepared and analyzed for BUN level in serum. An anti-dsDNA IgG ELISA kit (Chondrex, Inc., Cat. 3031) was used to quantitate IgG level to anti-dsDNA IgG in sera from individual mice.
Mice were euthanized using carbon dioxide, spleen and body weight were measured at the end of the study. Spleen index (ratio of spleen weight to body weight) was calculated.
The kidneys were collected and preserved in 10% NBF, the tissues were trimmed, dehydrated, embedded in paraffin, sectioned (˜3 μm) and stained with HE. The histopathology exam was performed.
The difference between the mean values of proteinuria level, spleen-index, BUN level, kidney histopathology score and anti-dsDNA IgG level in treatment and vehicle group was analyzed for significance using One-way ANOVA (followed by Dunnett's test). P<0.05 was considered statistically significant.

SLE-cGVHD mouse model = assay: Efficacy in systemic lupus erythematosus like chronic graft-versus-host-disease (SLE-cGVHD) model; type: in vivo
Experimental: Splenocytes from DBA/2 mice were transplanted into 54 B6D2F1 mice intravenously at day −7 and day 0. 48 animals were randomly divided into 4 groups of 12 animals each group according to the inoculation order. Treatment was initiated the next day after randomization until the end of the 26th day. […] Treatments were administered by oral gavage (p.o.) in a volume of 10 ml/kg body weight.
Mice were monitored daily for clinical signs of toxicity for the duration of the study. Body weight for each animal was recorded twice per week. On day 15th of treatment, blood was collected from the orbital venous sinus under isoflurane/oxygen anesthesia and the serum samples were prepared. An anti-ds DNA IgG ELISA kit (Chondrex, Inc., Cat. 3031) was used to quantitate anti-ds DNA IgG levels in sera from individual mice.
On day 8th, b 15th and 22th of treatment, proteinuria was assessed by determination of urine albumin using URIT 1 vp strips (URIT, China), and was scored on a 0-4 scale with scored as follows: 0=trace, 1≥30 mg/dL, 2≥100 mg/dL, 3≥300 mg/dL, and 4≥500 mg/dL.
The difference between the mean values of proteinuria level, spleen-index and anti-ds DNA IgG level in treatment and vehicle group was analyzed for significance using One-way ANOVA (followed by Dunnett's test). P<0.05 was considered statistically significant.

[4] = Plasma drug exposure at steady state in MRL/lpr mice; type: in vivo, mouse; settings: 1.5-50 mg/kg BID oral
Experimental: Plasma was collected by centrifugation at 5, 600 rpm for 7 minutes and was kept frozen at −80° C. until analysis. Bioanalysis was conducted at 3D BioOptima Co., Ltd. (Suzhou, China).

[5] = MMF 100 mg/kg QD p.o., compared with the control group
[6] = Compound 1 10 mg/kg BID p.o., day 96
[7] = Compound 1 3 and 10 mg/kg BID p.o.
[8] = 1.5, 5, 15 and 50 mg/kg BID oral, end of study

With `COc1c(C)c2c(c(O)c1C/C=C(\C)CCC(=O)OCCN1CCOCC1)C(=O)OC2` [MMF, mycophenolate mofetil, reference compound] the Renal histopathology score ([1]; MMF 100 mg/kg QD p.o.) was “not able to significantly inhibit”, the Spleen mass ([1]; MMF 100 mg/kg QD p.o.) was “not able to significantly inhibit” and the “IL-10 level in serum” value [1, 5] was “lower level of TNFα and IL-10 with no statistical significance”. For the same molecule, the “TNFα level in serum” value [1, 5] was “lower level of TNFα and IL-10 with no statistical significance” and the “Blood urea nitrogen (BUN) level” value ([1]; MMF 100 mg/kg QD p.o.) was “remarkably inhibited”.

In the case of `C=CC(=O)N1CCC([C@@H]2CCNc3c(C(N)=O)c(-c4ccc(Oc5ccccc5)cc4)nn32)CC1` [Compound 1, (S)-7-(1-acryloylpiperidin-4-yl)-2-(4-phenoxyphenyl)-4,5,6,7-tetra-hydropyrazolo[1,5-a]pyrimidine-3-carboxamide], the “Drug exposure AUC0-8h” value [2] is reported as “increased dose dependently”, the “Drug exposure Cmax” value [2] is reported as “increased dose dependently” and the “Secretion of IL-10 (serum level)” value [1, 6] is reported as “dramatically inhibited”. The “Secretion of TNFα (serum level)” value [1, 6] was “dramatically inhibited”, the Renal histopathology score ([1]; Compound 1 0.1-10 mg/kg BID p.o.) was “inhibited renal histopathology score in a dose-dependent manner” and the Proteinuria ([1]; Compound 1 0.1-10 mg/kg BID p.o., vs. vehicle) was “dose-dependently suppressed”. The Proteinuria ([1]; Compound 1 0.1 and 0.3 mg/kg BID p.o., compared with MMF 100 mg/kg QD) was “less effective than MMF”, the Proteinuria ([1]; Compound 1 1, 3 and 10 mg/kg BID p.o., compared with MMF 100 mg/kg QD) was “no significant difference when compared with MMF” and the Spleen weight [1, 7] was “dramatically inhibited”. For the same molecule, the “Blood urea nitrogen (BUN) level” value [1, 7] was “remarkably inhibited”, the “Anti-lupus effect compared with MMF” value ([1]; Compound 1 orally 3 and 10 mg/kg BID) was “stronger anti-lupus effect” and the “Anti-lupus effect (overall)” value ([1]; NZBWF1/J lupus mouse model, all results) was “strong anti-lupus effect”. The “Efficacy (dose dependence)” value ([3]; 1.5 mg/kg to 50 mg/kg twice a day) was “dose-dependent efficacy”, the “Protection from lupus nephritis” value ([3]; 1.5, 5, 15 and 50 mg/kg BID oral, 17 weeks) was “significantly protected” and the Proteinuria ([3]; 1.5, 5, 15 and 50 mg/kg BID oral, day 118) was “significantly decreased”. The Kidney histopathological score [3, 8] was “reduced”, the “Serum blood urea nitrogen (BUN) level” value [3, 8] was “significantly decreased” and the “Anti-dsDNA IgG level in serum” value ([3]; 1.5, 5, 15 and 50 mg/kg BID oral, end of study, compared with vehicle) was “inhibited”. The “Anti-lupus effect (overall)” value ([3]; MRL/lpr mouse model, all results) was “strong anti-lupus effect”, the “Level of anti-dsDNA IgG in serum” value (SLE-cGVHD mouse model; 10 and 20 mg/kg BID oral, day 15 of treatment, ELISA) was “inhibited” and the Proteinuria level (SLE-cGVHD mouse model; 10 and 20 mg/kg BID oral, day 22 of treatment) was “significantly reduced”. The “Disease (overall)” value (SLE-cGVHD mouse model; SLE-cGvHD mouse model, all results) was “ameliorated disease”, the “Drug exposure AUC0-8h” value [4] was “increased dose independently” and the “Drug exposure Cmax” value [4] was “increased dose independently”.
